Source: paper PMC6947424, “New Targeted Gold Nanorods for the Treatment of Glioblastoma by Photodynamic Therapy” (Journal of Clinical Medicine, 2019)
Values joined by “and” are separate entries in the source; they are usually repeats but may differ in a detail not shown here. Equal values may be shown once. Residues, ends and D or L forms follow the SMILES beside them. *: point of attachment. Pyropheophorbide(a) = C=Cc1c(C)c2cc3nc(c4c5[nH]c(cc6nc(cc1[nH]2)C(C)=C6CC)c(C)c5C(=O)C4)[C@@H](CCC(=O)*)[C@@H]3C; Hexanoyl(6-maleimido) = O=C1C=CC(=O)N1CCCCCC(=O)*

Legend:
[1] = Singlet oxygen production (quantum yield and lifetime); type: physicochemical; settings: ethanol; for ΦΔ (singlet oxygen quantum yield): excitation 412 nm, detection 1270 nm, Rose Bengal as reference
Procedure: The setup and the protocol to evaluate the photophysical characterizations including the absorption, fluorescence, and singlet oxygen emission spectra in addition to the fluorescence and singlet oxygen lifetimes have been previously described by our team. The absorption spectra were recorded on a UV-3600 UV–vis double beam spectrophotometer (Shimadzu, Marne La Vallée, France) in the wavelength range of 200-800 nm. The measurements were performed on the molecules dispersed in ethanol in quartz cuvettes with an optical path of 10 mm. The fluorescence spectra were recorded on a Horiba Jobin Yvon Fluorolog-3 (FL3-222) spectrofluorimeter equipped with a 450W xenon lamp, a thermostated cell compartment (25 °C), a R928 (Hamamatsu, Massy, France) UV–vis photomultiplier and a liquid nitrogen cooled InGaAs infrared detector (DSS-16A020L Electro-Optical System Inc., Phoenixville, PA, USA). The excitation spectrometer used is a SPEX double grating monochromator (1200 grooves per mm blazed at 330 nm). The fluorescence was measured using the UV–vis detector through a SPEX double grating monochromator (600 grooves per mm blazed at 500 nm). The singlet oxygen production was measured using the IR detector through a SPEX double grating monochromator (600 grooves per mm blazed at 1 μm).
Fluorescence quantum yields (Φf) were determined using a tetraphenyl porphyrin (TPP) solution as the fluorescence standard (Φf = 0.11 in toluene, taking into account solvent refractive index and absorption efficiencies. For the direct determination of ^1O2 quantum yield (ΦΔ), excitation was performed with a Xe-arc, the light was separated in a SPEX 1680, 0.22 µm double monochromator. Detection at 1270 nm was carried out through a PTI S/N 1565 monochromator and the emission was monitored by a liquid nitrogen cooled Ge-detector (EO-817L, North Coast Scientific Co, OH, USA). Rose Bengal (RB) was chosen as a reference solution because of its high ^1O2 quantum yield in EtOH (ΦΔ = 0.68). The absorbance value at the excitation wavelengths (412 nm) of both the reference and the sample solutions were set to approximately 0.2 by dilution. The samples were all prepared in ethanol.
The quantum yield of singlet oxygen production is determined by the equation (2):(2) ΦΔ=ΦΔ0×I/I0×[…] where ΦΔ and ΦΔ0, I and I0, DO and DO0 are the luminescence quantum yields of singlet oxygen, the luminescence intensities and the optical densities of the sample and reference, respectively.
Fluorescence lifetimes were measured by Time-Correlated Single Photon Counting (TCSPC) using for excitation a pulsed laser diode LDH-P-C-405 coupled with a PDL 800-D driver (both from PicoQuant GmbH, Berlin, Germany) emitting at 408 nm (FWHM < 70 ps, 1 MHz) and an SPCM-AQR-15 avalanche photodiode (EG & G, Vaudreuil, Canada) coupled with a 650 nm (±10 nm) interference long-wave pass filter as the detection system. The acquisition system was a PicoHarp 300 module with a PHR-800 four-channel router (both from PicoQuant GmbH, Berlin, Germany). Fluorescence decays were recorded using the single photon counting method (four optical faced quartz cells for pure products in ethanol). Data were collected, and up to 1000 counts were accumulated in the maximum channel and analyzed using Fluofit TCSPC software (PicoQuant GmbH, Berlin, Germany) based on iterative reconvolution using a Levensberg-Marquandt algorithm. Singlet oxygen lifetime measurements have been performed on a TEMPRO-01 spectrophotometer (Horiba Jobin Yvon, Palaiseau, France). The apparatus was composed of a pulsed diode excitation source SpectraLED-415 emitting at 415 nm, a cuvette compartment, a Seya–Namioka type emission monochromator (600–2000 nm), and an H10330-45 near-infrared photomultiplier tube with a thermoelectric cooler (Hamamatsu, Massy, France) as the detection system. The system was monitored by a single photon counting controller FluoroHub-B and the software DataStation and DAS6 (Horiba Jobin Yvon, Palaiseau, France). […]

[2] = test system: U87 glioblastoma cells; assay: MTT cytotoxicity in the dark, U87 cells; type: cell-based; settings: 24 h in the dark, n = 3
Procedure: (§1) For in vitro experiments, U87 glioblastoma cells (ATCC® HTB-14™) were cultivated in Dulbecco’s modified eagle’s medium (DMEM) supplemented with sodium pyruvate 1.5 mM, MEM AA, MEM NE AA, MEM vitamins, L-Ser 14 μg·mL^−1, L-asp 25 μg·mL^−1, L-Glu 2.5 mM, 100 U·mL^−1 penicillin, 100 μg·mL^−1 streptomycin, and 20% FCS. They were cultured under standard cell culture conditions while incubated in 5% CO2/80% humidified air at 37 °C.
Cell survival of U87 after incubation with the hybrid AuNRs, the PS-peptide conjugate or the free PS in the dark (cytotoxicity) or after light exposure (phototoxicity) was investigated using an MTT assay as previously described. […] However, the phototoxicity induced by those molecules was assessed by exposing the cells to light at a fluence of 10 J·cm^−2 (fluence rate 4.54 mW·cm^−2, duration: 36 min 42 s) using a 652 nm diode laser system (Ceralas, Biolytec, Jena, Germany). […] The cell survival was measured by MTT assay where the cells were incubated for 3 h at 37 °C with 0.4 mg·mL^−1. […] The absorption of formazan was measured at 540 nm with a background subtraction at 630 nm using a Multiskan Ascent plate reader (Thermo Scientific, Vantaa, Finland). […]
All in vitro experiments were realized in triplicate and expressed as a percentage of variation from control cells. […]

[3] = test system: U87 glioblastoma cells; assay: MTT phototoxicity after light exposure, U87 cells; type: cell-based; settings: 24 h; for PDT efficacy / photodynamic activity (in words): 10, 20 and 30 µM PS, 652 nm, 10 J/cm2, MTT; for decrease of cell viability: then 652 nm, 10 J/cm2 (4.54 mW·cm−2), MTT after further 24 h, triplicate
Procedure: as §1
Cell survival of U87 after incubation with the hybrid AuNRs, the PS-peptide conjugate or the free PS in the dark (cytotoxicity) or after light exposure (phototoxicity) was investigated using an MTT assay as previously described. Briefly, U87 cells were plated into 48-well plates at an initial cell density of 2 × 10^4 cells/cm^2 in culture medium, incubated at 37 °C during 48 h. Old culture media were discarded and the wells were filled with 250 µL of culture medium containing different concentrations of the tested molecules (AuNRs@PEG-MI-K(Pyro)DKPPR-OH, MI-K(Pyro)DKPPR-OH and Pyro) at a final PS concentration of 10, 20, and 30 μM. After 24 h, the wells were washed three times with HBSS and filled with culture medium. To evaluate the cytotoxicity of the tested molecules towards the U87 cells, one plate was kept incubated in the dark. However, the phototoxicity induced by those molecules was assessed by exposing the cells to light at a fluence of 10 J·cm^−2 (fluence rate 4.54 mW·cm^−2, duration: 36 min 42 s) using a 652 nm diode laser system (Ceralas, Biolytec, Jena, Germany). The cells were further incubated for 24 h. The cell survival was measured by MTT assay where the cells were incubated for 3 h at 37 °C with 0.4 mg·mL^−1. After that, the excess of MTT was discarded and the formazan crystals that developed in the living cells were dissolved by DMSO. The absorption of formazan was measured at 540 nm with a background subtraction at 630 nm using a Multiskan Ascent plate reader (Thermo Scientific, Vantaa, Finland). Experiments were carried out in triplicates.
All in vitro experiments were realized in triplicate and expressed as a percentage of variation from control cells. The results were given as mean ± standard deviation (SD). Differences among groups were evaluated using variance analysis (Anova) followed by Bonferroni test (GraphPad Prism 6.0 software, San Diego, CA, USA). A value of p < 0.05 was considered as statistically significant. * Versus control cells.

| Compound | τΔ (singlet oxygen lifetime) [1] [μs] | ΦΔ (singlet oxygen quantum yield) [1] | dark cytotoxicity (metabolic activity of U87 cells) ([2]; 10 µM PS) | PDT efficacy / photodynamic activity (in words) [3] | dark cytotoxicity ([2]; even at PS concentration of 30 µM) | decrease of cell viability ([3]; 10 µM PS) [%] | decrease of cell viability ([3]; 20 µM PS) [%] | decrease of cell viability ([3]; 30 µM PS) [%] |
| --- | --- | --- | --- | --- | --- | --- | --- | --- |
| C=Cc1c(C)c2cc3nc(c4c5[nH]c(cc6nc(cc1[nH]2)C(C)=C6CC)c(C)c5C(=O)C4)[C@@H](CCC(=O)O)[C@@H]3C [Pyro, pyropheophorbide-a, reference compound] | 14 | 0.5 and 0.51 | decrease the metabolic activity of U87 cells | low PDT efficacy | – | – | – | – |
| C=Cc1c(C)c2cc3nc(c4c5[nH]c(cc6nc(cc1[nH]2)C(C)=C6CC)c(C)c5C(=O)C4)[C@@H](CCC(=O)NCCCC[C@H](NC(=O)CCCCCN1C(=O)C=CC1=O)C(=O)N[C@@H](CC(=O)O)C(=O)N[C@@H](CCCCN)C(=O)N1CCC[C@H]1C(=O)N1CCC[C@H]1C(=O)N[C@@H](CCCNC(=N)N)C(=O)O)[C@@H]3C [MI-K(Pyro)DKPPR-OH] ({Hexanoyl(6-maleimido)}-K(Pyropheophorbide(a))DKPPR-OH) | 13 | 0.39 | – | lower photodynamic activity | no cytotoxic effect | 25 | 46 | 58 |
